Experiment [1] deals with interferon regulatory factor (IRF) pathway in THP-1 dual cells. Put plainly: THP-1 Dual reporter assay, IRF pathway (luciferase). The format is cell-based. The conditions noted are these: Homo sapiens, THP1-Dual, read-out: THP1 Dual EC50 (μM) IRF. As for the experimental part: (§1) Compounds of the present invention were tested for their activity using THP-1 dual cells (Invivogen, cat no. thpd-nfis) allowing for simultaneous study of NF-κB pathway and the interferon regulatory factor (IRF) pathway. THP-1 dual cells contain luciferase reporter gene under the control of an ISG54 (interferon-stimulated gene) minimal promoter in conjunction with five interferon-stimulated response elements and a secreted embryonic alkaline phosphatase reporter gene under the control an IFN (interferon)-β minimal promoter fused to five copies of the NF-κB consensus transcriptional response element with three copies of the c-Rel binding site. Following 18 h of stimulation with STING agonist, medium was collected and transferred onto fresh cell culture plate. To verify activity of the IRF pathway, luminescence activity was measured with standard laboratory plate reader immediately after addition 10 μl of the medium to 40 or 50 μl of luminescence reagent (Invivogen, cat. No. rep-qlc2). To verify activity of NF-κB pathway, 10 or 20 μl of the medium was mixed with 80 μl of a detection medium (Invivogen, cat. No. rep-qb2) and incubated for 1 or 2 hours at 37° C. in a humidified atmosphere containing 5% CO2. Next, absorbance at 630 or 655 nm was recorded using standard laboratory plate reader.
In general terms: In a reporter assay the amount or activity of a reporter protein is the signal.

Experiment [2] has as its system NF-κB pathway in THP-1 dual cells. Put plainly: THP-1 Dual reporter assay, NF-κB pathway (SEAP). The format is cell-based. To be noted: Homo sapiens, THP1-Dual, read-out: THP1 Dual EC50 (μM) NFkB. On the procedure:
as §1

Where [3] appears, read: 18 h stimulation, absorbance at 630 or 655 nm.

The term EC50 denotes the concentration needed to bring the measured effect to its halfway point.

Where a name gives a salt, the structure may show the parent alone. Read-outs that look alike come from different tables or passages of the source.

Turning to `Cc1ccc(N2CCC[C@H](N(Cc3ccnc(C)c3)Cc3cn(C4CC4)c4cc(N5CCC(CO)C5)c(F)cc4c3=O)C2)cn1` (stereo partly drawn) [Example 79, 1-cyclopropyl-6-fluoro-7-[3-(hydroxymethyl)pyrrolidin-1-yl]-3-({[(3S)-1-(6-methylpyridin-3-yl)piperidin-3-yl][(2-methylpyridin-4-yl)methyl]amino}methyl)-1,4-dihydroquinolin-4-one hydrochloride], the EC50 in experiment [1] (18 h stimulation, luminescence) was < 1 µM; in experiment [2] (setting [3]), < 1 µM.
In the case of `Cc1ccc(N2CCC[C@H](N(Cc3ccnc(C)c3)Cc3cn(C4CC4)c4cc(C5C[C@@H](O)CN5)ccc4c3=O)C2)cn1` (stereo partly drawn) [Example 76, 1-cyclopropyl-7-[(4R)-4-hydroxypyrrolidin-2-yl]-3-({[(3S)-1-(6-methylpyridin-3-yl)piperidin-3-yl][(2-methylpyridin-4-yl)methyl]amino}methyl)-1,4-dihydroquinolin-4-one], the EC50 was in the range of 1 to 10 µM in experiment [1] (18 h stimulation, luminescence) and 1 to 10 µM in experiment [2] (setting [3]).
Consider `Cc1ccc(N2CCC[C@H](N(Cc3ccnc(C)c3)Cc3cn(C4CC4)c4cc(N5CC[C@H](N)C(F)(F)C5)c(F)cc4c3=O)C2)cn1.Cl` (single isomer, unassigned) [Example 57, 7-[(4S)-4-amino-3,3-difluoropiperidin-1-yl]-1-cyclopropyl-6-fluoro-3-({[(3S)-1-(6-methylpyridin-3-yl)piperidin-3-yl][(2-methylpyridin-4-yl)methyl]amino}methyl)-1,4-dihydroquinolin-4-one], for which the EC50 in experiment [1] (18 h stimulation, luminescence) is < 1 µM; in experiment [2] (setting [3]), < 1 µM.
With `Cc1ccc(N2CCC[C@H](N(Cc3ccnc(C)c3)Cc3cn(C4CC4)c4cc(N5CCOC(CO)C5)c(F)cc4c3=O)C2)cn1` (stereo partly drawn) [Example 71, 1-cyclopropyl-6-fluoro-7-[2-(hydroxymethyl)morpholin-4-yl]-3-({[(3S)-1-(6-methylpyridin-3-yl)piperidin-3-yl][(2-methylpyridin-4-yl)methyl]amino}methyl)-1,4-dihydroquinolin-4-one], the EC50 in experiment [1] (18 h stimulation, luminescence) was < 1 µM; in experiment [2] (setting [3]) it was < 1 µM.
As to `Cc1ccc(N2CCC[C@H](N(Cc3ccnc(C)c3)Cc3cn(C4CC4)c4cc(N5CCC6C(CCN6C(=O)OCc6ccc(NC(=O)[C@H](CCCNC(N)=O)NC(=O)[C@@H](NC(=O)CCOCCOCCOCCN=[N+]=[N-])C(C)C)cc6)C5)c(F)cc4c3=O)C2)cn1` (stereo partly drawn) [Example 68A, {4-[(2S)-2-[(2S)-2-(3-{2-[2-(2-azidoethoxy)ethoxy]ethoxy}propanamido)-3-methyl-butanamido]-5-(carbamoylamino)pentanamido]phenyl}methyl 5-[1-cyclopropyl-6-fluoro-3-({[(3S)-1-(6-methylpyridin-3-yl)piperidin-3-yl][(2-methylpyridin-4-yl)methyl]amino}methyl)-4-oxo-1,4-dihydroquinolin-7-yl]-octahydro-1H-pyrrolo[3,2-c]pyridine-1-carboxylate], the EC50 in experiment [1] (18 h stimulation, luminescence) was 1 to 10 µM; in experiment [2] (setting [3]), > 10 µM.
On the same counts, the results for `Cc1cc(CN(Cc2cn(C3CC3)c3cc(OCCO)c(F)cc3c2=O)[C@H]2C[C@H](F)CN(c3cnccn3)C2)ccn1` [Example 95, 1-cyclopropyl-6-fluoro-3-({[(3S,5S)-5-fluoro-1-(pyrazin-2-yl)piperidin-3-yl][(2-methylpyridin-4-yl)methyl]amino}methyl)-7-(2-hydroxyethoxy)-1,4-dihydroquinolin-4-one hydrochloride] are < 1 µM and < 1 µM.
Consider `Cc1ccc(N2CCC[C@H](N(Cc3ccnc(C)c3)Cc3cn(C4CC4)c4cc(OCCNC(=O)OCc5ccc(NC(=O)[C@H](CCCNC(N)=O)NC(=O)[C@@H](NC(=O)CCOCCOCCOCCN=[N+]=[N-])C(C)C)cc5)c(F)cc4c3=O)C2)cn1` [Example 10A, {4-[(2S)-2-[(2S)-2-(3-{2-[2-(2-azidoethoxy)ethoxy]ethoxy}propanamido)-3-methyl-butanamido]-5-(carbamoylamino)pentanamido]phenyl}methyl N-(2-{[1-cyclopropyl-6-fluoro-3-({[(3S)-1-(6-methylpyridin-3-yl)piperidin-3-yl][(2-methylpyridin-4-yl)methyl]amino}methyl)-4-oxo-1,4-dihydroquinolin-7-yl]oxy}ethyl)carbamate], for which the half-maximal effective concentration (EC50) is > 10 µM in experiment [1] (18 h stimulation, luminescence) and > 10 µM in experiment [2] (setting [3]).
Turning to `Cc1cc(CN(Cc2cn(C)c3ccccc3c2=O)[C@H]2CCCN(c3ccc(OCCO)nc3)C2)ccn1` [Example 101, 3-({[(3S)-1-[6-(2-hydroxyethoxy)pyridin-3-yl]piperidin-3-yl][(2-methylpyridin-4-yl)methyl]amino}methyl)-1-methyl-1,4-dihydroquinolin-4-one], the EC50 is 1 to 10 µM in experiment [1] (18 h stimulation, luminescence) and 1 to 10 µM in experiment [2] (setting [3]).
As to `C#CCOCCOCCOCCOCCOCCC(=O)Nc1ccc(COC(=O)N(C)[C@@H]2CCN(c3cc4c(cc3F)c(=O)c(CN(Cc3ccnc(C)c3)[C@H]3CCCN(c5ccc(C)nc5)C3)cn4C3CC3)C2)cc1` [Example 55A], the EC50 in experiment [1] (18 h stimulation, luminescence) is < 1 µM; in experiment [2] (setting [3]), < 1 µM.
On to `Cc1cc(CN(Cc2cn(C3CC3)c3cc(N4CC[C@H](CO)C4)c(F)cc3c2=O)[C@H]2CCCN(c3cnccn3)C2)ccn1` [Example 94, 1-cyclopropyl-6-fluoro-7-[(3S)-3-(hydroxymethyl)pyrrolidin-1-yl]-3-({[(2-methylpyridin-4-yl)methyl][(3S)-1-(pyrazin-2-yl)piperidin-3-yl]amino}methyl)-1,4-dihydroquinolin-4-one hydrochloride], for which the EC50 was < 1 µM in experiment [1] (18 h stimulation, luminescence) and < 1 µM in experiment [2] (setting [3]).
As for `Cc1cc(CN(Cc2cn(C)c3ccccc3c2=O)[C@H]2CCCN(c3ccc(CO)nc3)C2)ccn1` [Example 40, 3-({[(3S)-1-[6-(hydroxymethyl)pyridin-3-yl]piperidin-3-yl][(2-methylpyridin-4-yl)methyl]amino}methyl)-1-methyl-1,4-dihydroquinolin-4-one], the EC50 lay within 1 to 10 µM in experiment [1] (18 h stimulation, luminescence) and 1 to 10 µM in experiment [2] (setting [3]).
In the case of `Cc1ccc(N2CCC[C@H](N(Cc3ccnc(C)c3)Cc3cn(C(C)C)c4cc(N5C[C@@H](O)[C@@H](O)C5)ccc4c3=O)C2)cn1` [Example 54, 7-[(3R,4S)-3,4-dihydroxypyrrolidin-1-yl]-3-({[(3S)-1-(6-methylpyridin-3-yl)piperidin-3-yl][(2-methylpyridin-4-yl)methyl]amino}methyl)-1-(propan-2-yl)-1,4-dihydroquinolin-4-one], the EC50 in experiment [1] (18 h stimulation, luminescence) was < 1 µM; in experiment [2] (setting [3]), 1 to 10 µM.
For the compound `Cc1cnc(N2CCC[C@H](N(Cc3ccnc(C)c3)Cc3cn(C4CC4)c4cc(N5CCC[C@H](O)C5)c(F)cc4c3=O)C2)cn1` [Example 81, 1-cyclopropyl-6-fluoro-7-[(3S)-3-hydroxypiperidin-1-yl]-3-({[(3S)-1-(5-methylpyrazin-2-yl)piperidin-3-yl][(2-methylpyridin-4-yl)methyl]amino}methyl)-1,4-dihydroquinolin-4-one], the EC50 in experiment [1] (18 h stimulation, luminescence) was < 1 µM; in experiment [2] (setting [3]), < 1 µM.
Consider `Cc1cc(CN(Cc2cn(C3CC3)c3cc(N4CCC[C@H](O)C4)c(F)cc3c2=O)[C@H]2CCCN(c3cnccn3)C2)ccn1` [Example 98, 1-cyclopropyl-6-fluoro-7-[(3S)-3-hydroxypiperidin-1-yl]-3-({[(2-methylpyridin-4-yl)methyl][(3S)-1-(pyrazin-2-yl)piperidin-3-yl]amino}methyl)-1,4-dihydroquinolin-4-one hydrochoride], for which the half-maximal effective concentration (EC50) in experiment [1] (18 h stimulation, luminescence) was < 1 µM; in experiment [2] (setting [3]), < 1 µM.
On to `Cc1cc(CN(Cc2cn(C3CC3)c3cc(OCCO)c(F)cc3c2=O)[C@H]2CCCN(c3cccnn3)C2)ccn1` [Example 96, 1-cyclopropyl-6-fluoro-7-(2-hydroxyethoxy)-3-({[(2-methylpyridin-4-yl)methyl][(3S)-1-(pyridazin-3-yl)piperidin-3-yl]amino}methyl)-1,4-dihydroquinolin-4-one], for which the EC50 is 1 to 10 µM in experiment [1] (18 h stimulation, luminescence) and > 10 µM in experiment [2] (setting [3]).
`Cc1ccc(N2CCC[C@H](N(Cc3ccnc(C)c3)Cc3cn(C)c4cc(N5CC[C@@H](N)C(F)(F)C5)ccc4c3=O)C2)cn1` (single isomer, unassigned) [Example 50]: the EC50 in experiment [1] (18 h stimulation, luminescence) is < 1 µM; in experiment [2] (setting [3]) it was < 1 µM.
`Cc1ccc(N2CCC[C@H](N(Cc3ccnc(C)c3)Cc3cn(C4CC4)c4cc(N5CCO[C@@H](CO)C5)c(F)cc4c3=O)C2)cn1` (single isomer, unassigned) [Example 72]: the EC50 is < 1 µM in experiment [1] (18 h stimulation, luminescence) and < 1 µM in experiment [2] (setting [3]).
As to `Cc1cc(CN(Cc2cn(C3CC3)c3cc(OCCO)c(F)cc3c2=O)[C@H]2CCCN(c3ccc(Cl)nc3)C2)ccn1` [Example 97, 3-({[(3S)-1-(6-chloropyridin-3-yl)piperidin-3-yl][(2-methylpyridin-4-yl)methyl]amino}methyl)-1-cyclopropyl-6-fluoro-7-(2-hydroxyethoxy)-1,4-dihydroquinolin-4-one hydrochloride], the EC50 in experiment [1] (18 h) and in experiment [2] (18 h) was < 1 µM each time.

Values taken from US12643879B2, “Functionalized heterocyclic compounds as modulators of stimulator of interferon genes (STING)” (RYVU THERAPEUTICS S.A., priority 2019, dated 2026).
